14 compounds from patent US12662489B2 (Sitryx Therapeutics Limited, priority 2023, dated 2026) can be followed below.

Assay [1] addresses T1, MTHFD1 recombinant human enzyme (Homo sapiens, UniProt P11586).
T1 sequence (P11586 2-291 limits assumed): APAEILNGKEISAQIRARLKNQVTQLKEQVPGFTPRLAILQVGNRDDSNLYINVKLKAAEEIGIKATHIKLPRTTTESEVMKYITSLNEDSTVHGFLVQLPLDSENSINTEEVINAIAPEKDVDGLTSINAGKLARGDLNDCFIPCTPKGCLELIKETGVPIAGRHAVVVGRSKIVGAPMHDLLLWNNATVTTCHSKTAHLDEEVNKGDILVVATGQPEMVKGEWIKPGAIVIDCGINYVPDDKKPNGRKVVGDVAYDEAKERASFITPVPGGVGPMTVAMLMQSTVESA
Kind of assay: MTHFD1 inhibition assay (NAD(P)H-Glo luminescence). To be noted: MTHFD1 IC50, recombinant human enzyme 200 nM, NADP, band.

For assay [2], the target named is T2, MTHFD2 recombinant human enzyme (Homo sapiens, UniProt P13995).
T2 sequence (P13995 36-350): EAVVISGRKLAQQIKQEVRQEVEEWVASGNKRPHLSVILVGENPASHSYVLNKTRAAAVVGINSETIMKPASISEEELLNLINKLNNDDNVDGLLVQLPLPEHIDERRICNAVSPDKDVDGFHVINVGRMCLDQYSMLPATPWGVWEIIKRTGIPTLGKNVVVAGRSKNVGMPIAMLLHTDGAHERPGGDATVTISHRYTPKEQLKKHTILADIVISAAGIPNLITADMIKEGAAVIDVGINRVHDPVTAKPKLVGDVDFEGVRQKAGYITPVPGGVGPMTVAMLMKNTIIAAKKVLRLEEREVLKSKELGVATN
Kind of assay: MTHFD2 inhibition assay (NAD(P)H-Glo luminescence). The following applies: for MTHFD1/MTHFD2 IC50 ratio: selectivity of MTHFD2 inhibition over MTHFD1, band.

The subject of assay [3] is human CD4+ T cells. Kind of assay: Human CD4+ T-cell proliferation assay (CFSE, CD3/28 beads). The following applies: read-out: Proliferation IC50.

Regarding `COC[C@H]1CN(c2cc(C)c3c4c(c(=O)oc3c2C)CN(C(=O)c2cc(OC3CCC3)c(C(=O)NS(=O)(=O)C3(C)CC3)c(C(F)(F)F)c2)CC4)CCN1C` [Example 130, (R)-2-cyclobutoxy-4-(8-(3-(methoxymethyl)-4-methylpiperazin-1-yl)-7,10-dimethyl-5-oxo-1,3,4,5-tetrahydro-2H-chromeno[3,4-c]pyridine-3-carbonyl)-N-((1-methylcyclopropyl)sulfonyl)-6-(trifluoromethyl)benzamide], the results for the IC50 in assay [1], in assay [2] and in assay [3] were 1000 to 5000 nM, 10 to 100 nM and 1000 to 5000 nM, respectively. Moreover, the “MTHFD1/MTHFD2 IC50 ratio” value in assay [2] is on record as “J (>30)”.

`CCOc1c(C(=O)NS(=O)(=O)N2C3CCC2CC3)ccc(C(=O)N2CCc3c(c(=O)oc4c(C)c(N5CCN(C)[C@@H](COC)C5)cc(C)c34)C2)c1F` [Example 228]: the figures for the IC50 in assay [1], in assay [2] and in assay [3] were 100 to 1000 nM, 10 to 100 nM and 1 to 10 nM, respectively. In addition, the “MTHFD1/MTHFD2 IC50 ratio” value in assay [2] was “G (^ 3 to 9.0)”.

`COC[C@H]1CN(c2cc(C)c3c4c(c(=O)oc3c2C)CN(C(=O)c2cc(N(C)C)c(C(=O)NS(=O)(=O)C3(C)CC3)cc2Cl)CC4)CCN1C` [Example 151, (R)-5-chloro-2-(dimethylamino)-4-(8-(3-(methoxymethyl)-4-methylpiperazin-1-yl)-7,10-dimethyl-5-oxo-1,3,4,5-tetrahydro-2H-chromeno[3,4-c]pyridine-3-carbonyl)-N-((1-methylcyclopropyl)sulfonyl)benzamide]: the IC50 in assay [1] fell in the range of 1000 to 5000 nM; in assay [2], 10 to 100 nM; in assay [3] it was 100 to 1000 nM. Besides, in assay [2], the “MTHFD1/MTHFD2 IC50 ratio” value was “J (>30)”.

Take `COC[C@H]1CN(c2cc(C)c3c4c(c(=O)oc3c2C)CN(C(=O)c2ccc(C(=O)NS(=O)(=O)N3CCC5(CC3)CC5)c(OC)c2F)CC4)CCN1C` [Example 155, (R)-N-((6-azaspiro[2.5]octan-6-yl)sulfonyl)-3-fluoro-2-methoxy-4-(8-(3-(methoxymethyl)-4-methylpiperazin-1-yl)-7,10-dimethyl-5-oxo-1,3,4,5-tetrahydro-2H-chromeno[3,4-c]pyridine-3-carbonyl)benzamide]: the IC50 in assay [1] was in the range of 100 to 1000 nM; in assay [2] it was 10 to 100 nM; in assay [3] it was 10 to 30 nM.

Take `CCOc1cc(C(=O)N2CCc3c(c(=O)oc4c(C)c(N5CCN(C)[C@@H](COC)C5)cc(Cl)c34)C2)c(F)cc1C(=O)NS(=O)(=O)N1CCCC1` [Example 259, (R)-4-(10-chloro-8-(3-(methoxymethyl)-4-methylpiperazin-1-yl)-7-methyl-5-oxo-1,3,4,5-tetrahydro-2H-chromeno[3,4-c]pyridine-3-carbonyl)-2-ethoxy-5-fluoro-N-(pyrrolidin-1-ylsulfonyl)benzamide]: the IC50 in assay [1] was 100 to 1000 nM; in assay [2], 1 to 10 nM; in assay [3], 30 to 100 nM. In assay [2], the “MTHFD1/MTHFD2 IC50 ratio” value is “J (>30)”.

As to `CCOc1cc(C(=O)N2CCc3c(c(=O)oc4c(C)c(N5CCN(C)[C@@H](COC)C5)cc(C)c34)C2)c(F)cc1C(=O)NS(=O)(=O)N1CC[C@H](F)C1` [Example 268, 2-ethoxy-5-fluoro-N-(((S)-3-fluoropyrrolidin-1-yl)sulfonyl)-4-(8-((R)-3-(methoxymethyl)-4-methylpiperazin-1-yl)-7,10-dimethyl-5-oxo-1,3,4,5-tetrahydro-2H-chromeno[3,4-c]pyridine-3-carbonyl)benzamide], the IC50 in assay [1] lay in the range of 100 to 1000 nM; in assay [2], 1 to 10 nM; in assay [3], 1 to 10 nM. In addition, the “MTHFD1/MTHFD2 IC50 ratio” value in assay [2] was “J (>30)”.

In the case of `CCOc1cc(C(=O)N2CCc3c(c(=O)oc4c(C)c(N5CCN(C)[C@@H](COC)C5)cc(C)c34)C2)c(F)cc1C(=O)NS(=O)(=O)N1C[C@@H]2C[C@H]1CO2` [Example 267, N-(((1S,4S)-2-oxa-5-azabicyclo[2.2.1]heptan-5-yl)sulfonyl)-2-ethoxy-5-fluoro-4-(8-((R)-3-(methoxymethyl)-4-methylpiperazin-1-yl)-7,10-dimethyl-5-oxo-1,3,4,5-tetrahydro-2H-chromeno[3,4-c]pyridine-3-carbonyl)benzamide], the IC50 lay within 100 to 1000 nM in assay [1], 1 to 10 nM in assay [2] and 100 to 1000 nM in assay [3]. In addition, in assay [2], the “MTHFD1/MTHFD2 IC50 ratio” value is recorded as “J (>30)”.

Take `COC[C@H]1CN(c2ccc3c4c(c(=O)oc3c2C)CN(C(=O)c2ccc(C(=O)NS(=O)(=O)C3(C)CC3)c(N3CCCC3)c2)CC4)CCN1C` [Example 15, (R)-4-(8-(3-(methoxymethyl)-4-methylpiperazin-1-yl)-7-methyl-5-oxo-1,3,4,5-tetrahydro-2H-chromeno[3,4-c]pyridine-3-carbonyl)-N-((1-methylcyclopropyl)sulfonyl)-2-(pyrrolidin-1-yl)benzamide]: the IC50 in assay [1] fell in the range of 10 to 100 nM; in assay [2], 10 to 100 nM; in assay [3], 1 to 10 nM. Moreover, in assay [2], the “MTHFD1/MTHFD2 IC50 ratio” value is “F (<3)”.

In the case of `COC[C@H]1CN(c2cc(C)c3c4c(c(=O)oc3c2C)CN(C(=O)c2ccc(C(=O)NS(=O)(=O)N3C[C@H]5CCC[C@H]5C3)cc2)CC4)CCN1C` [Example 210, N-(((3aR,6a S)-hexahydrocyclopenta[c]pyrrol-2(1H)-yl)sulfonyl)-4-(8-((R)-3-(methoxymethyl)-4-methylpiperazin-1-yl)-7,10-dimethyl-5-oxo-1,3,4,5-tetrahydro-2H-chromeno[3,4-c]pyridine-3-carbonyl)benzamide], the IC50 is 1000 to 5000 nM in assay [1], 10 to 100 nM in assay [2] and > 5000 nM in assay [3]. The “MTHFD1/MTHFD2 IC50 ratio” value in assay [2] is “J (>30)”.

`[2H]C([2H])([2H])Oc1cc(C(=O)N2CCc3c(c(=O)oc4c(C)c(N5CCN(C)[C@@H](COC)C5)cc(C)c34)C2)c(Cl)cc1C(=O)NS(=O)(=O)N1CCCC1` [Example 328, (R)-5-chloro-2-(methoxy-d3)-4-(8-(3-(methoxymethyl)-4-methylpiperazin-1-yl)-7,10-dimethyl-5-oxo-1,3,4,5-tetrahydro-2H-chromeno[3,4-c]pyridine-3-carbonyl)-N-(pyrrolidin-1-ylsulfonyl)benzamide]: the results for the IC50 in assay [1], in assay [2] and in assay [3] were 1000 to 5000 nM, 10 to 100 nM and 100 to 1000 nM, respectively. For the same compound, the “MTHFD1/MTHFD2 IC50 ratio” value in assay [2] is on record as “J (>30)”.

`COC[C@H]1CN(c2cc(C)c3c4c(c(=O)oc3c2C)CN(C(=O)c2cc(N(C)C)c(C(=O)NS(=O)(=O)N3CCC[C@@H]3COC)cc2F)CC4)CCN1C` [Example 311, 2-(dimethylamino)-5-fluoro-4-(8-((R)-3-(methoxymethyl)-4-methylpiperazin-1-yl)-7,10-dimethyl-5-oxo-1,3,4,5-tetrahydro-2H-chromeno[3,4-c]pyridine-3-carbonyl)-N-(((R)-2-(methoxymethyl)pyrrolidin-1-yl)sulfonyl)benzamide]: the IC50 in assay [1] was in the range of 1000 to 5000 nM; in assay [2] it was 1 to 10 nM; in assay [3] it was 1 to 10 nM. Further, the “MTHFD1/MTHFD2 IC50 ratio” value in assay [2] is recorded as “J (>30)”.

Consider `COC[C@H]1CN(c2cc(Cl)c3c4c(c(=O)oc3c2C)CN(C(=O)c2cc(N(C)C)c(C(=O)NS(=O)(=O)N(C)C)cc2F)CC4)CCN1C` [Example 260, (R)-4-(10-chloro-8-(3-(methoxymethyl)-4-methylpiperazin-1-yl)-7-methyl-5-oxo-1,3,4,5-tetrahydro-2H-chromeno[3,4-c]pyridine-3-carbonyl)-2-(dimethylamino)-N-(N,N-dimethylsulfamoyl)-5-fluorobenzamide], for which the IC50 lay in the range of 100 to 1000 nM in assay [1], 1 to 10 nM in assay [2] and 10 to 30 nM in assay [3]. The “MTHFD1/MTHFD2 IC50 ratio” value in assay [2] is “J (>30)”.

As to `COC[C@H]1CN(c2cc(C)c3c4c(c(=O)oc3c2C)CN(C(=O)c2cc(N)c(C(=O)NS(=O)(=O)N3CCCC3)cc2F)CC4)CCN1C` [Example 196, (R)-2-amino-5-fluoro-4-(8-(3-(methoxymethyl)-4-methylpiperazin-1-yl)-7,10-dimethyl-5-oxo-1,3,4,5-tetrahydro-2H-chromeno[3,4-c]pyridine-3-carbonyl)-N-(pyrrolidin-1-ylsulfonyl)benzamide], the IC50 in assay [1] is 1000 to 5000 nM; in assay [2], 10 to 100 nM; in assay [3], > 5000 nM. Also, the “MTHFD1/MTHFD2 IC50 ratio” value in assay [2] is “J (>30)”.

As to `COC[C@H]1CN(c2cc(C)c3c4c(c(=O)oc3c2C)CN(C(=O)c2ccc(C(=O)NS(=O)(=O)N3CCCC3)c(OC)c2F)CC4)CCN1C` [Example 135, (R)-3-fluoro-2-methoxy-4-(8-(3-(methoxymethyl)-4-methylpiperazin-1-yl)-7,10-dimethyl-5-oxo-1,3,4,5-tetrahydro-2H-chromeno[3,4-c]pyridine-3-carbonyl)-N-(pyrrolidin-1-ylsulfonyl)benzamide], the IC50 lay within 10 to 100 nM in assay [1], 1 to 10 nM in assay [2] and 10 to 30 nM in assay [3]. Moreover, the “MTHFD1/MTHFD2 IC50 ratio” value in assay [2] is listed as “G (^ 3 to 9.0)”.
